We go through seven compounds from US6890947B2, “Indolyl derivatives” (Hoffmann-La Roche Inc., priority 2002, dated 2005).

Experiment [1] concerns the target T1, human PPARα (Homo sapiens, UniProt Q07869).
T1 sequence (Q07869 167-468 limits assumed): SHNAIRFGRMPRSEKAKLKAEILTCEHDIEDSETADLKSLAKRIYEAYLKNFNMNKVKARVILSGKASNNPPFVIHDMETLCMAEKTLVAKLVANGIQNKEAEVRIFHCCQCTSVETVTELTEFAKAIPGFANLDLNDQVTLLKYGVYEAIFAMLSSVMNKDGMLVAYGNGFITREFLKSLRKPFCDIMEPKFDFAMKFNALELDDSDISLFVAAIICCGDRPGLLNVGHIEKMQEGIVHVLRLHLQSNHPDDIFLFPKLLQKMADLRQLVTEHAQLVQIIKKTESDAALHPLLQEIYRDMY
Description: Luciferase transcriptional reporter gene assay, pFA-PPARα-LBD in BHK21 cells. It is filed as cell-based. As to conditions: Gal4-PPARα-LBD. An excerpt:
(§1) Full-length cDNA clones for human PPARα and mouse PPARγ were obtained by RT-PCR from human adipose and mouse liver cRNA, respectively, cloned into plasmid vectors and verified by DNA sequencing. […] To accomplish this, the portions of the cloned sequences encoding the LBDs were amplified from the full-length clones by PCR and then subcloned into the plasmid vectors. Final clones were verified by DNA sequence analysis.
(§2) Luciferase Transcriptional Reporter Gene Assays
(§3) Baby hamster kidney cells (BHK21 ATCC CCL10) were grown in DMEM medium containing 10% FBS at 37° C. in a […] atmosphere. Cells were seeded in 6 well plates at a density of 10^5 Cells/well and then transiently batch-transfected with either the pFA-PPARγ-LBD or pFA-PPARα-LBD expression plasmids plus the pFR-luc reporter plasmid and an expression plasmid encoding the secretable form of alkaline phosphatase (SEAP) as a normalization control. […] Six hours following transfection, the cells were harvested by trypsinization and seeded in 96 well plates at a density of 10^4 cells/well. After 24 hours to allow attachment of cells, the medium was removed and replaced with 100 ul of phenol red-free medium containing the test substances or control ligands (final. 0.1% DMSO). Following incubation of the cells for 24 hours with substances, 50 ul of the supernatant was recovered and analyzed for SEAP activity (Roche Molecular Biochemicals). The remainder of the supernatant was discarded, 50 ul PBS was added per well followed by one volume of Luciferase Constant-Light Reagent (Roche Molecular Biochemicals) to lyse the cells and initiate the luciferase reaction. Luminescence for both SEAP and luciferase was measured in a Packard TopCount. Luciferase activity was normalized to the SEAP control and transcriptional activation in the presence of a test substance was expressed as fold-activation over cells incubated in the absence of the substance. EC50 values were calculated using the XLfit program (ID Business Solutions Ltd. UK).

Experiment [2] has as its target T1, human PPARα. As to the kind of experiment: PPARα radioligand binding assay (GST-PPARα-LBD fusion protein). Details: made in house; host or cells: E. coli BL21(pLysS).
Text: as §1
(§4) Induction, expression, and purification of GST-LBD fusion proteins were performed in E. coli strain BL21(pLysS) cells by standard methods (Ref: Current Protocols in Molecular Biology, Wiley Press, edited by Ausubel et al.).
(§5) Radioligand Binding Assay
PPARα receptor binding was assayed in TKE10 (10 mM Tris-HCl, pH 8, 50 mM KCl, 2 mM EDTA, […] fatty acid free BSA and 10 mM DTT). For each 96 well 2.4 ug equivalent of GST-PPARα-LBD fusion protein and radioligand, e.g. 40000 dpm 2(S)-(2-benzoyl-phenylamino)-3-{4-[1,1-ditritio-2-(5-methyl-2-phenyl-oxazol-4-yl)-ethoxy]-phenyl}-propionic acid, were incubated in 100 ul volume at RT for 2 hrs. Bound ligand was removed from unbound ligand by solid phase separation using MultiScreen plates (Millipore) filled with 80 ul of SG25 according to the manufacturer's recommendations.
(§6) PPARγ receptor binding was assayed in TKE50 (50 mM Tris-HCl, pH 8, 50 mM KCl, […], 0.1 mg/ml fatty acid-free […] and 10 mM DTT). For each 96 well reaction an 140 ng equivalent of GST-PPARγ-LBD fusion protein was bound to 10 ug SPA beads (PharmaciaAmersham) in a final volume of 50 ul by shaking. The resulting slurry was incubated for 1 h at RT and centrifuged for 2 min at 1300 g. The supernatant containing unbound protein was removed and the semidry pellet containing the recptor-coated beads was resolved in 50 ul of TKE. For radioligand binding e.g. 10000 dpm 2(S)-(2-benzoyl-phenylamino)-3-{4-[1, 1-ditritio-2-(5-methyl-2-phenyl-oxazol-4-yl)-ethoxy]-phenyl}-propionic acid in 50 ul were added, the reaction incubated at RT for 1h and scintillation proximity counting performed. All binding assays were performed in 96 well plates and the amount of bound ligand measured on a Packard TopCount using OptiPlates (Packard). Nonspecific binding was determined in the presence of 10^−4 M unlabelled compound. Dose response curves were done in triplicates within a range of concentration from 10^−10 M to 10^−4 M.

For experiment [3], the target named is T2, mouse PPARγ (Mus musculus, UniProt P37238).
T2 sequence (P37238 204-505): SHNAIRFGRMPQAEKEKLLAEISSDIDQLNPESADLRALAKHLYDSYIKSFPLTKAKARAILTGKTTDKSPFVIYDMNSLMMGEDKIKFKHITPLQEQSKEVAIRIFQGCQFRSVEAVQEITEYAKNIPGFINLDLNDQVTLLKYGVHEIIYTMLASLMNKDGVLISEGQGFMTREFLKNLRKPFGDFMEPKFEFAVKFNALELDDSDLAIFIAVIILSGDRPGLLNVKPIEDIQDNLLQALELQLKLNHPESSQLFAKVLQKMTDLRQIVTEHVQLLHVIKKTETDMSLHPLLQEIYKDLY
Description: PPARγ radioligand binding assay (GST-PPARγ-LBD fusion protein, scintillation proximity). Conditions: SPA.
Text: as §1, §4, §5, §6

Experiment [4] has as its target T2, mouse PPARγ. Description: Luciferase transcriptional reporter gene assay, pFA-PPARγ-LBD in BHK21 cells. Details: expressed in transfected cells; host or cells: BHK21 (ATCC CCL10). It counts as cell-based. Conditions: Gal4-PPARγ-LBD.
Text: as §1, §2, §3
(In general: A reporter such as luciferase makes a cellular process visible.)

As for `CCO[C@@H](Cc1ccc2c(ccn2Cc2nc(-c3ccccc3Cl)oc2C)c1)C(=O)O` [Example 5, (S)-3-{1-[2-(2-Chloro-phenyl)-5-methyl-oxazol-4-ylmethyl]-1H-indol-5-yl}-2-ethoxy-propionic Acid], the EC50 (in general, the concentration needed to bring the measured effect to its halfway point) on human PPARα [1] was determined as 1520 nM. The IC50 (in general, the concentration that gives 50% inhibition) at human PPARα [2] was 240 nM.

On to `CCO[C@@H](Cc1ccc2c(ccn2Cc2nc(-c3cc(OC)cc(OC)c3)oc2C)c1)C(=O)O` [Example 21, (S)-3-{1-[2-(3,5-Dimethoxy-phenyl)-5-methyl-oxazol-4-ylmethyl]-1H-indol-5-yl}-2-ethoxy-propionic Acid], for which the EC50 on human PPARα [1] turned out to be 30 nM. Also, the concentration for half-maximal inhibition (IC50) at human PPARα [2] amounted to 30 nM.

As for `CCOC(Cc1ccc2c(c1)cc(C)n2Cc1csc(-c2ccccc2)n1)C(=O)O` (racemic) [Example 44, Rac-2-Ethoxy-3-[2-methyl-1-(2-phenyl-thiazol-4-ylmethyl)-1H-indol-5-yl]-propionic Acid], the values for the EC50 on human PPARα [1] and on mouse PPARγ [4] were 5240 nM and 2700 nM, respectively. In addition, the half-inhibitory concentration (IC50) on mouse PPARγ [3] worked out at 1410 nM; on human PPARα [2], 1640 nM.

Take `CCO[C@@H](Cc1ccc2c(ccn2Cc2nc(-c3ccc(C(F)(F)F)cc3)oc2C)c1)C(=O)O` [Example 18, (S)-2-Ethoxy-3-{1-[5-methyl-2-(4-trifluoromethyl-phenyl)-oxazol-4-ylmethyl]-1H-indol-5-yl}-propionic Acid]: the concentration giving a half-maximal response (EC50) on human PPARα [1] came out at 80 nM; on mouse PPARγ [4] it was 130 nM. Besides, the results for the IC50 at mouse PPARγ [3] and on human PPARα [2] were 180 nM and 30 nM, respectively.

With `CCO[C@@H](Cc1ccc2c(ccn2Cc2nc(-c3ccccc3OC)oc2C)c1)C(=O)O` [Example 8, (S)-2-Ethoxy-3-{1-[2-(2-methoxy-phenyl)-5-methyl-oxazol-4-ylmethyl]-1H-indol-5-yl}-propionic Acid], the results for the EC50 at human PPARα [1] and at mouse PPARγ [4] were 190 nM and 560 nM, respectively. For the same compound, the IC50 is 400 nM on mouse PPARγ [3] and 280 nM at human PPARα [2].

On to `CCOC(Cc1ccc2c(c1)c(C)cn2Cc1nc(-c2ccc(F)c(C)c2)oc1C)C(=O)O` (racemic) [Example 39, Rac-2-Ethoxy-3-{1-[2-(4-fluoro-3-methyl-phenyl)-5-methyl-oxazol-4-ylmethyl]-3-methyl-1H-indol-5-yl}-propionic Acid], for which the values for the EC50 on human PPARα [1] and on mouse PPARγ [4] were 470 nM and 20 nM, respectively. Also, the IC50 on mouse PPARγ [3] is 110 nM; on human PPARα [2] it was 60 nM.

Consider `CCO[C@@H](Cc1ccc2c(ccn2Cc2nc(-c3ccc(F)c(C)c3)oc2C)c1)C(=O)O` [Example 25, (S)-2-Ethoxy-3-{1-[2-(4-fluoro-3-methyl-phenyl)-5-methyl-oxazol-4-ylmethyl]-1H-indol-5-yl}-propionic Acid], for which the EC50 on human PPARα [1] is 60 nM; on mouse PPARγ [4], 50 nM. Also, the IC50 on mouse PPARγ [3] was determined as 50 nM; at human PPARα [2], 120 nM.
